Results from patent US9845319B2, “Amide substituted thiazoles as modulators of RORyt” (Janssen Pharmaceutica NV, priority 2014, dated 2017).

Experiments:
[1] = molecular target: T1, human RORγt ligand binding domain (RORγt LBD) (Homo sapiens, UniProt P51449); assay: RORγt ThermoFluor assay; settings: estimated from thermal shift concentration response
T1 construct: His-tag (N); TurboTEV protease cleavage site (ENLYFQG) (N); made in house; host or cells: E. coli (pHIS1, a modified pET expression vector)
T1 sequence (P51449 with tags, fused parts or gaps): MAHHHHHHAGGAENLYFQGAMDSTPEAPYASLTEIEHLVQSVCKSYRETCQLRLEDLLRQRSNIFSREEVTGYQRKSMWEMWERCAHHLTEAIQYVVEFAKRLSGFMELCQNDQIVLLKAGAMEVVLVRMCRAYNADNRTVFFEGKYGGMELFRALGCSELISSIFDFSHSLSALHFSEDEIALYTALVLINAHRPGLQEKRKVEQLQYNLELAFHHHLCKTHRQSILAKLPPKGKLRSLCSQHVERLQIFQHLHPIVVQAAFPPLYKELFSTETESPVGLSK
In short: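 Thermal shift of RORγt LBD (0.065 mg/mL) with 60 μM 1,8-ANS in 100 mM Hepes pH 7.0, NaCl, GSH, 0.002% Tween-20, heated at 1° C/min. ANS fluorescence tracked versus temperature; ΔTm relative to DMSO wells. Compounds serially diluted 1:2 from 10 mM DMSO stock.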

full-length human RORγt = molecular target: T2, full-length human RORγt (Homo sapiens, UniProt P51449); assay: RORγt (full-length human) Reporter Assay, Conditions A; type: cell-based; settings: for IC50: HEK293T cells, GAL4-DBD-RORγt, luciferase, read-out: RORγt (FL) Reporter Assay A, IC50; for inhibition at 6 µM: read-out: RORγt (FL) Reporter Assay A, % inhibition @ 6 μM, 6 μM compound; for inhibition at 2 µM: read-out: RORγt (FL) Reporter Assay A, % inhibition (* at 2 μM), 2 μM compound concentration (footnote *)
T2 construct: expressed in transfected cells; host or cells: HEK293T, transiently transfected with pCMV-BD-ROR
T2 sequence (P51449 1-497 isoform P51449-2): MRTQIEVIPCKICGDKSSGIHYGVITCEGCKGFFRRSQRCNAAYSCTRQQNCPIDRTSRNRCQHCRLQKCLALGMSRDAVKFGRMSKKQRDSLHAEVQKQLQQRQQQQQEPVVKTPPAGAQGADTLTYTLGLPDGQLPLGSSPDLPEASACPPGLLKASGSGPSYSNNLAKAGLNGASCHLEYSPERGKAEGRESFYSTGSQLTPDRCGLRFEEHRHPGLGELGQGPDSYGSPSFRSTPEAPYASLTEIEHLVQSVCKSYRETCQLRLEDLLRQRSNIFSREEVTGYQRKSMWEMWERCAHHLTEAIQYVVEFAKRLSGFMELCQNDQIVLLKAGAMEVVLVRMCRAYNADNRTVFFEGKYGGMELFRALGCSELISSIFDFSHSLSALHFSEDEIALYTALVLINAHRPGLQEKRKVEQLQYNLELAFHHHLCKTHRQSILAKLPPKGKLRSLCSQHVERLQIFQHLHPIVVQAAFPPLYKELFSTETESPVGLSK
In short: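 Dual-luciferase readout after overnight (16 to 20 hours) treatment: firefly values scaled between DMSO-only and saturating reference-compound controls, then corrected by Renilla. Percent inhibition calculated against DMSO control, with IC50 derived from concentration-response plots.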

SMILES	Kd [1]	IC50 (full-length human RORγt)	inhibition at 6 µM (full-length human RORγt)	inhibition at 2 µM (full-length human RORγt)
CC(C)(O)c1nnc(-c2nc(C(=O)N3CCC(F)(F)CC3)c(-c3ccc(S(=O)(=O)NC4(C(F)F)CC4)c(F)c3Cl)s2)o1 [Example 6/17, 3-Chloro-N-(1-(difluoromethyl)cyclopropyl)-4-(4-(4,4-difluoropiperidine-1-carbonyl)-2-(5-(2-hydroxypropan-2-yl)-1,3,4-oxadiazol-2-yl)thiazol-5-yl)-2-fluorobenzenesulfonamide]	21 nM	100 nM	105%	–
C[C@H](NS(=O)(=O)c1ccc(-c2sc(-c3nnc(C(C)(C)O)o3)nc2C(=O)N2CCCC[C@@H]2C)c(C(F)F)c1F)C(F)(F)F [Example 6/18, 3-(Difluoromethyl)-2-fluoro-4-(2-(5-(2-hydroxypropan-2-yl)-1,3,4-oxadiazol-2-yl)-4-((S)-2-methylpiperidine-1-carbonyl)thiazol-5-yl)-N—((S)-1,1,1-trifluoropropan-2-yl)benzenesulfonamide]	1 nM	82 nM	104%	–
CC(C)(O)c1nnc(-c2nc(C(=O)N3CCC(F)(F)CC3)c(-c3ccc(S(=O)(=O)NC(C)(C)C(F)(F)F)c(F)c3Cl)s2)o1 [Example 6/19, 3-Chloro-4-(4-(4,4-difluoropiperidine-1-carbonyl)-2-(5-(2-hydroxypropan-2-yl)-1,3,4-oxadiazol-2-yl)thiazol-5-yl)-2-fluoro-N-(1,1,1-trifluoro-2-methylpropan-2-yl)benzenesulfonamide]	6.1 nM	76 nM	107%	–
CC[C@H](NS(=O)(=O)c1ccc(-c2sc(-c3nnc(C(C)(C)O)o3)nc2C(=O)N(CC)CC)c(Cl)c1F)C(F)(F)F [Example 6/20, (S)-5-(2-Chloro-3-fluoro-4-(N-(1,1,1-trifluorobutan-2-yl)sulfamoyl)phenyl)-N,N-diethyl-2-(5-(2-hydroxypropan-2-yl)-1,3,4-oxadiazol-2-yl)thiazole-4-carboxamide]	11 nM	43 nM	–	102%
C[C@H](NS(=O)(=O)c1ccc(-c2sc(-c3nnc(C(C)(C)O)o3)nc2C(=O)N2CC(F)C[C@@H]2C)c(C(F)F)c1F)C(F)(F)F (stereo partly drawn) [Example 6/21, 3-(Difluoromethyl)-2-fluoro-4-(4-((2S)-4-fluoro-2-methylpyrrolidine-1-carbonyl)-2-(5-(2-hydroxypropan-2-yl)-1,3,4-oxadiazol-2-yl)thiazol-5-yl)-N—((S)-1,1,1-trifluoropropan-2-yl)benzenesulfonamide]	270 nM	410 nM	102%	–
CC(C)(O)c1nnc(-c2nc(C(=O)N3CC(F)(F)CC3(C)C)c(-c3ccc(S(=O)(=O)NC4(C(F)F)CC4)c(F)c3Cl)s2)o1 [Example 6/22, 3-Chloro-4-(4-(4,4-difluoro-2,2-dimethylpyrrolidine-1-carbonyl)-2-(5-(2-hydroxypropan-2-yl)-1,3,4-oxadiazol-2-yl)thiazol-5-yl)-N-(1-(difluoromethyl)cyclopropyl)-2-fluorobenzenesulfonamide]	1200 nM	1600 nM	74%	–

The next lines start with the values.

Kd [1]	IC50 (full-length human RORγt)	inhibition at 6 µM (full-length human RORγt)	inhibition at 2 µM (full-length human RORγt)	SMILES
6000 nM	2300 nM	40%	–	CN(CC(F)(F)F)S(=O)(=O)c1ccc(-c2sc(-c3nnc(C(C)(C)O)o3)nc2C(=O)N2CCC(F)(F)CC2)c(Cl)c1F [Example 6/23, 3-Chloro-4-(4-(4,4-difluoropiperidine-1-carbonyl)-2-(5-(2-hydroxypropan-2-yl)-1,3,4-oxadiazol-2-yl)thiazol-5-yl)-2-fluoro-N-methyl-N-(2,2,2-trifluoroethyl)benzenesulfonamide]
11 nM	130 nM	–	96%	C[C@H]1CCCN1C(=O)c1nc(-c2nnc(C(C)(C)O)o2)sc1-c1ccc(OCC(O)(C(F)(F)F)C(F)(F)F)cc1C(F)(F)F [Example 6/24, (S)-(2-(5-(2-Hydroxypropan-2-yl)-1,3,4-oxadiazol-2-yl)-5-(4-(3,3,3-trifluoro-2-hydroxy-2-(trifluoromethyl)propoxy)-2-(trifluoromethyl)phenyl)thiazol-4-yl)(2-methylpyrrolidin-1-yl)methanone]
290 nM	120 nM	102%	–	CCN(CC)C(=O)c1nc(-c2nnc(C)o2)sc1-c1ccc(S(=O)(=O)N[C@@H](C)C(F)(F)F)c(Cl)c1Cl [Example 7, (S)-5-(2,3-Dichloro-4-(N-(1,1,1-trifluoropropan-2-yl)sulfamoyl)phenyl)-N,N-diethyl-2-(5-methyl-1,3,4-oxadiazol-2-yl)thiazole-4-carboxamide]
5.6 nM	61 nM	108%	–	C[C@H](NS(=O)(=O)c1ccc(-c2sc(-c3nnc(C(C)(C)O)o3)nc2C(=O)N2CCC(F)(F)CC2)c(Cl)c1F)C(F)(F)F [Example 8/1, (S)-3-Chloro-4-(4-(4,4-difluoropiperidine-1-carbonyl)-2-(5-(2-hydroxypropan-2-yl)-1,3,4-oxadiazol-2-yl)thiazol-5-yl)-2-fluoro-N-(1,1,1-trifluoropropan-2-yl)benzenesulfonamide]
1.7 nM	51 nM	–	104%	CC(C)(O)c1nnc(-c2nc(C(=O)N3CCC(F)(F)CC3)c(-c3ccc(CC(O)(C(F)(F)F)C(F)(F)F)c(Cl)c3Cl)s2)o1 [Example 8/2, (5-(2,3-Dichloro-4-(3,3,3-trifluoro-2-hydroxy-2-(trifluoromethyl)propyl)phenyl)-2-(5-(2-hydroxypropan-2-yl)-1,3,4-oxadiazol-2-yl)thiazol-4-yl)(4,4-difluoropiperidin-1-yl)methanone]
6.3 nM	83 nM	–	104%	CC(C)(O)c1nnc(-c2nc(C(=O)N3CCC(F)(F)CC3)c(-c3ccc(CC(O)(C(F)(F)F)C(F)(F)F)c(Cl)c3)s2)o1 [Example 8/3, (5-(3-Chloro-4-(3,3,3-trifluoro-2-hydroxy-2-(trifluoromethyl)propyl)phenyl)-2-(5-(2-hydroxypropan-2-yl)-1,3,4-oxadiazol-2-yl)thiazol-4-yl)(4,4-difluoropiperidin-1-yl)methanone]
32 nM	120 nM	–	99%	CCN(CC)C(=O)c1nc(-c2nnc(C(C)(C)O)[nH]2)sc1-c1ccc(C(O)(C(F)(F)F)C(F)(F)F)c(Cl)c1Cl [Example 9, 5-(2,3-Dichloro-4-(1,1,1,3,3,3-hexafluoro-2-hydroxypropan-2-yl)phenyl)-N,N-diethyl-2-(5-(2-hydroxypropan-2-yl)-4H-1,2,4-triazol-3-yl)thiazole-4-carboxamide]
27 nM	67 nM	–	99%	CCN(CC)C(=O)c1nc(-c2nncn2CC(C)(C)O)sc1-c1ccc(C(O)(C(F)(F)F)C(F)(F)F)c(Cl)c1Cl [Example 9/1, 5-(2,3-Dichloro-4-(1,1,1,3,3,3-hexafluoro-2-hydroxypropan-2-yl)phenyl)-N,N-diethyl-2-(4-(2-hydroxy-2-methylpropyl)-4H-1,2,4-triazol-3-yl)thiazole-4-carboxamide]
0.71 nM	28 nM	–	104%	C[C@H](NS(=O)(=O)c1ccc(-c2sc(-c3nnc(C(C)(C)O)[nH]3)nc2C(=O)N2CC(F)(F)C[C@@H]2C)c(Cl)c1Cl)C(F)(F)F [Example 9/2, 2,3-Dichloro-4-(4-((S)-4,4-difluoro-2-methylpyrrolidine-1-carbonyl)-2-(5-(2-hydroxypropan-2-yl)-4H-1,2,4-triazol-3-yl)thiazol-5-yl)-N—((S)-1,1,1-trifluoropropan-2-yl)benzenesulfonamide]
1.2 nM	61 nM	–	104%	C[C@H](NS(=O)(=O)c1ccc(-c2sc(-c3nnc(C(C)(C)O)[nH]3)nc2C(=O)N2CCC(F)(F)CC2)c(Cl)c1Cl)C(F)(F)F [Example 9/3, (S)-2,3-Dichloro-4-(4-(4,4-difluoropiperidine-1-carbonyl)-2-(5-(2-hydroxypropan-2-yl)-4H-1,2,4-triazol-3-yl)thiazol-5-yl)-N-(1,1,1-trifluoropropan-2-yl)benzenesulfonamide]
